Assay results taken from ChEMBL document CHEMBL3045481, “Insecticide-induced resurgence of the whitebacked planthopper Sogatella furcifera (Horvath) (Hemiptera: Delphacidae) on rice varieties with different levels of resistance” (Crop Prot, 2011).

Columns and labels:
Sogatella furcifera [1] = test: Insecticidal activity against Sogatella furcifera on insect-sensitive rice plant ARC6248 assessed as nymphal duration at 0.030% concentration (reference value: 14.48 days); format: functional
Sogatella furcifera [2] = test: Insecticidal activity against Sogatella furcifera on insect-resistanct rice plant PR116 assessed as resurgence ratio at 0.030% concentration; format: functional
Oryza sativa [3] = test: Effect on total phenols level in Sogatella furcifera-sensitive Oryza sativa (rice) plant ARC6248 leaf blade measured per gram of dry weight at 0.030% concentration (reference value: 17.08 mg/g dry wt); format: ADME, organism-based; settings: in vivo
Oryza sativa [4] = test: Effect on total phenols level in Sogatella furcifera-sensitive Oryza sativa (rice) plant ARC6248 leaf sheath measured per gram of dry weight at 0.030% concentration (reference value: 12.75 mg/g dry wt); format: ADME, organism-based; settings: in vivo
Oryza sativa [5] = test: Effect on total protein level in Sogatella furcifera-resistanct Oryza sativa (rice) plant PR116 leaf blade measured per gram of dry weight at 0.030% concentration (reference value: 21.67 mg/g fresh wt); format: ADME, organism-based; settings: in vivo
Oryza sativa [6] = test: Effect on total sugar level in Sogatella furcifera-resistanct Oryza sativa (rice) plant PR116 leaf blade measured per gram of dry weight at 0.030% concentration (reference value: 36.16 mg/g dry wt); format: ADME, organism-based; settings: in vivo
Oryza sativa [7] = test: Effect on total amino acids level in Sogatella furcifera-sensitive Oryza sativa (rice) plant ARC6248 leaf sheath measured per gram of dry weight at 0.030% concentration (reference value: 2.11 mg/g fresh wt); format: ADME, organism-based; settings: in vivo
Sogatella furcifera [8] = test: Insecticidal activity against Sogatella furcifera on insect-sensitive rice plant ARC6248 assessed as growth index at 0.030% concentration (reference value: 2.38%); format: functional
Oryza sativa [9] = test: Effect on reducing sugar level in Sogatella furcifera-resistanct Oryza sativa (rice) plant PR116 leaf blade measured per gram of dry weight at 0.030% concentration (reference value: 9.35 mg/g dry wt); format: ADME, organism-based; settings: in vivo
Oryza sativa [10] = test: Effect on reducing sugar level in Sogatella furcifera-sensitive Oryza sativa (rice) plant ARC6248 leaf blade measured per gram of dry weight at 0.030% concentration (reference value: 8.37 mg/g dry wt); format: ADME, organism-based; settings: in vivo
Oryza sativa [11] = test: Effect on total amino acids level in Sogatella furcifera-resistanct Oryza sativa (rice) plant PR116 leaf sheath measured per gram of dry weight at 0.030% concentration (reference value: 2.58 mg/g […]); format: ADME, organism-based; settings: in vivo
Oryza sativa [12] = test: Effect on total phenols level in Sogatella furcifera-resistanct Oryza sativa (rice) plant PR116 leaf blade measured per gram of dry weight at 0.030% concentration (reference value: 8.08 mg/g dry wt); format: ADME, organism-based; settings: in vivo
Sogatella furcifera [13] = test: Insecticidal activity against Sogatella furcifera on insect-resistanct rice plant PR116 assessed as nymphal duration at 0.030% concentration (reference value: 11.75 days); format: functional
Oryza sativa [14] = test: Effect on total protein level in Sogatella furcifera-sensitive Oryza sativa (rice) plant ARC6248 leaf blade measured per gram of dry weight at 0.030% concentration (reference value: 17.67 mg/g […]); format: ADME, organism-based; settings: in vivo
Sogatella furcifera [15] = test: Insecticidal activity against Sogatella furcifera on insect-sensitive rice plant ARC6248 assessed as resurgence ratio at 0.030% concentration; format: functional
Oryza sativa [16] = test: Effect on total amino acids level in Sogatella furcifera-sensitive Oryza sativa (rice) plant ARC6248 leaf blade measured per gram of dry weight at 0.030% concentration (reference value: 3.54 mg/g fresh wt); format: ADME, organism-based; settings: in vivo
Sogatella furcifera [17] = test: Insecticidal activity against Sogatella furcifera on insect-resistanct rice plant PR116 assessed as growth index at 0.030% concentration (reference value: 6.02%); format: functional
Oryza sativa [18] = test: Effect on total amino acids level in Sogatella furcifera-resistanct Oryza sativa (rice) plant PR116 leaf blade measured per gram of dry weight at 0.030% concentration (reference value: 3.91 mg/g […]); format: ADME, organism-based; settings: in vivo
Oryza sativa [19] = test: Effect on total protein level in Sogatella furcifera-resistanct Oryza sativa (rice) plant PR116 leaf sheath measured per gram of dry weight at 0.030% concentration (reference value: 7.06 mg/g fresh wt); format: ADME, organism-based; settings: in vivo
Oryza sativa [20] = test: Effect on total phenols level in Sogatella furcifera-resistanct Oryza sativa (rice) plant PR116 leaf sheath measured per gram of dry weight at 0.030% concentration (reference value: 5.75 mg/g dry wt); format: ADME, organism-based; settings: in vivo
Oryza sativa [21] = test: Effect on reducing sugar level in Sogatella furcifera-sensitive Oryza sativa (rice) plant ARC6248 leaf sheath measured per gram of dry weight at 0.030% concentration (reference value: 6.41 mg/g dry wt); format: ADME, organism-based; settings: in vivo
Oryza sativa [22] = test: Effect on total sugar level in Sogatella furcifera-sensitive Oryza sativa (rice) plant ARC6248 leaf sheath measured per gram of dry weight at 0.030% concentration (reference value: 25.98 mg/g dry wt); format: ADME, organism-based; settings: in vivo
Oryza sativa [23] = test: Effect on total protein level in Sogatella furcifera-sensitive Oryza sativa (rice) plant ARC6248 leaf sheath measured per gram of dry weight at 0.030% concentration (reference value: 6.11 mg/g […]); format: ADME, organism-based; settings: in vivo
Oryza sativa [24] = test: Effect on total sugar level in Sogatella furcifera-sensitive Oryza sativa (rice) plant ARC6248 leaf blade measured per gram of dry weight at 0.030% concentration (reference value: 34.05 mg/g dry wt); format: ADME, organism-based; settings: in vivo
Oryza sativa [25] = test: Effect on total sugar level in Sogatella furcifera-resistanct Oryza sativa (rice) plant PR116 leaf sheath measured per gram of dry weight at 0.030% concentration (reference value: 30.27 mg/g dry wt); format: ADME, organism-based; settings: in vivo
Sogatella furcifera [26] = test: Insecticidal activity against Sogatella furcifera on insect-resistanct rice plant PR116 assessed as nymphal survival at 0.030% concentration (reference value: 70.28%); format: functional
Sogatella furcifera [27] = test: Insecticidal activity against Sogatella furcifera on insect-sensitive rice plant ARC6248 assessed as nymphal survival at 0.030% concentration (reference value: 34.17%); format: functional
Oryza sativa [28] = test: Effect on reducing sugar level in Sogatella furcifera-resistanct Oryza sativa (rice) plant PR116 leaf sheath measured per gram of dry weight at 0.030% concentration (reference value: 7.50 mg/g dry wt); format: ADME, organism-based; settings: in vivo

`COP(=S)(OC)Oc1ccc([N+](=O)[O-])cc1` [METHYL PARATHIONE] was tested, and the Time (Sogatella furcifera [1]) was 14.35 days, the Ratio (Sogatella furcifera [2]) was 1.69 and the Activity (Oryza sativa [3]) was 16.08 mg. For the same compound, the Activity (Oryza sativa [4]) was 11.08 mg, the Activity (Oryza sativa [5]) was 23.33 mg and the Activity (Oryza sativa [6]) was 38.3 mg. The Activity (Oryza sativa [7]) was 2.86 mg, the “growth inhibition (GI)” value (Sogatella furcifera [8]) was 2.87% and the Activity (Oryza sativa [9]) was 14.89 mg. It also gave an Activity (Oryza sativa [10]) of 10.54 mg, an Activity (Oryza sativa [11]) of 3.64 mg and an Activity (Oryza sativa [12]) of 7.5 mg. It also gave a Time (Sogatella furcifera [13]) of 11.57 days, an Activity (Oryza sativa [14]) of 21.17 mg and a Ratio (Sogatella furcifera [15]) of 1.26. For the same compound, the Activity (Oryza sativa [16]) was 4.04 mg, the “growth inhibition (GI)” value (Sogatella furcifera [17]) was 6.76% and the Activity (Oryza sativa [18]) was 4.53 mg. For the same compound, the Activity (Oryza sativa [19]) was 8.67 mg, the Activity (Oryza sativa [20]) was 5.58 mg and the Activity (Oryza sativa [21]) was 9.89 mg. The Activity (Oryza sativa [22]) was 33.21 mg, the Activity (Oryza sativa [23]) was 8.33 mg and the Activity (Oryza sativa [24]) was 39.37 mg. The Activity (Oryza sativa [25]) was 33.48 mg, the Survival (Sogatella furcifera [26]) was 77.78% and the Survival (Sogatella furcifera [27]) was 40.83%. For the same compound, the Activity (Oryza sativa [28]) was 11.63 mg.
